What was measured:
Format in all cases: functional, Homo sapiens
Raji [1] = assay: Tested in vitro for inhibitory activity against TPA induced Epstein-Barr virus antigen activation in Raji cells (1000 mol) for viability
Raji [2] = assay: Tested in vitro for inhibitory activity against TPA induced Epstein-Barr virus antigen activation in Raji cells (500 mol) for positive control
Raji [3] = assay: Tested in vitro for inhibitory activity against TPA induced Epstein-Barr virus antigen activation in Raji cells (10 mol) for positive control
Raji [4] = assay: Tested in vitro for inhibitory activity against TPA induced Epstein-Barr virus antigen activation in Raji cells (100 mol) for positive control
Raji [5] = assay: Tested in vitro for inhibitory activity against TPA induced Epstein-Barr virus antigen activation in Raji cells (1000 mol) for positive control

Row | SMILES | Viability (Raji [1]) [%] | EBV-EA activation (% of positive control) (Raji [2]) [%] | EBV antigen activation, % of positive control (Raji [3]) [%] | EBV antigen activation, % of positive control (Raji [4]) [%] | EBV antigen activation, % of positive control (Raji [5]) [%]
1 | CO[C@@H]1O[C@H](CO)[C@H](O)[C@H](O)[C@H]1O | 80 | 43.9 | 93.7 | 76.5 | 20.3
2 | CC(=O)OCC(CO)O[C@@H]1O[C@@H](CO)[C@@H](O)[C@H](O)[C@@H]1O (stereo in doubt; form 2) | 70 | 36.6 | 100 | 77.3 | 0
3 | CC(=O)OCC(CO)O[C@@H]1O[C@@H](CO)[C@@H](O)[C@H](O)[C@@H]1O (stereo in doubt; form 1) | – | 32.9 | 94.7 | 71.5 | –
4 | OCC(CO)O[C@@H]1O[C@@H](CO)[C@H](O)[C@H](O)[C@@H]1O (stereo in doubt; form 2) | 80 | 17.5 | 100 | 88.1 | 0
5 | OCC(CO)O[C@@H]1O[C@@H](CO)[C@H](O)[C@H](O)[C@@H]1O (stereo in doubt; form 1) | 70 | 45.8 | – | 81 | –
6 | CO[C@@H]1O[C@H](CO)C(O)C(O)[C@H]1O (single isomer, unassigned) | 70 | 54.1 | 100 | 70.7 | 22.8
7 | OCC(O)CO[C@@H]1O[C@@H](CO)[C@@H](O)[C@H](O)[C@@H]1O (stereo in doubt; form 2) | – | 27.4 | 90.4 | 68.9 | –
8 | OCC(O)CO[C@@H]1O[C@@H](CO)[C@@H](O)[C@H](O)[C@@H]1O (stereo in doubt; form 1) | 70 | 20.7 | 82.5 | 62.4 | 0
9 | OCC(O)CO[C@@H]1O[C@@H](CO)[C@H](O)[C@H](O)[C@@H]1O (stereo in doubt; form 1) | – | 16.5 | 79.1 | 58.2 | –
10 | OCC(O)CO[C@@H]1O[C@@H](CO)[C@H](O)[C@H](O)[C@@H]1O (stereo in doubt; form 2) | 70 | 25.8 | 87.5 | 64.6 | 0

Reference: ChEMBL document CHEMBL1128917, “1-O-, 2-O- and 3-O--glycosyl-sn-glycerols: Structure - anti-tumor-promoting activity relationship” (1996)
